Common to all, as to assay: NCI-60 cell line screen, 48 h
Assay [1] concerns HCC-2998 colon.
Assay [2] has as its system HCT-116 colon.
The subject of assay [3] is M14 melanoma.
Assay [4] has as its system MDA-MB-231 breast.
The test system of assay [5] is PC-3 prostate.
For assay [6], the system named is RXF 393 renal.
The subject of assay [7] is SF-539 CNS.
The subject of assay [8] is SK-MEL-5 melanoma.
In assay [9] the test system is T-47D breast.
In assay [10] the test system is MALME-3M melanoma.

The structures appear in SMILES notation.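 The compound was tested at five concentrations on cells cultured in 96-well plates, with a 48-hour exposure period. The concentration for full growth arrest is given as TGI.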

As to `Cc1ccc(S(=O)(=O)/N=C2/N(C)CCCS2(=O)=O)cc1`, the TGI in assay [1] was above 100 µM; in assay [2] it was above 100 µM; in assay [3], above 100 µM; in assay [4], 31.9 µM; in assay [5] it was above 100 µM; in assay [6] it was above 100 µM. In addition, the TGI in assay [7], in [8] and in assay [9] was above 100 µM throughout.

On to `COc1ccc(N2CN(C)CSC2=S)cc1`, for which the TGI in [1], in assay [2], in assay [3], in assay [10], in assay [4] and in assay [5] was above 100 µM each time. Moreover, the TGI in assay [6], in assay [7], in assay [8] and in [9] was above 100 µM throughout.

Consider `COCCOC(C)C(=O)C(O)S(=O)(=O)O` (stereo not drawn), for which the TGI in assay [1], in assay [2], in [3], in [10], in [4] and in [5] was above 100 µM each time. Further, the TGI in assay [6], in [7], in [8] and in assay [9] was above 100 µM in each case.

For the compound `CCCCCCCCCC(O)CC(=O)c1c(O)cccc1O` (stereo not drawn), the TGI in assay [1] was determined as 26.8 µM; in [2], 56.7 µM; in assay [3], 44.2 µM; in assay [10], 32.3 µM; in assay [4], 46.5 µM; in [5] it was 36.4 µM. The TGI in assay [6] came to 34.8 µM; in assay [7] it was 40.7 µM; in assay [8] it was 38 µM; in [9], 71.5 µM.

On to `CNC(=O)c1cc2nc3ccccc3c(=O)n2c2ccccc12`, for which the TGI in assay [1], in [2], in assay [3], in assay [10], in assay [4] and in [5] was above 10 µM each time. For the same compound, the TGI in [6], in assay [7], in assay [8] and in assay [9] was above 10 µM throughout.

In the case of `CC(C(=O)NCCNC(=O)CCC(=O)N(C)O)C(=O)NCCNC(=O)CCC(=O)N(C)O`, the TGI in assay [1], in assay [3], in [10], in [4], in assay [5] and in assay [6] was above 100 µM each time. The TGI in [8] and in assay [9] was above 100 µM throughout.

As for `CSc1c2c(C)n[nH]c2nn1-c1ccccc1`, the TGI in assay [1], in assay [2], in assay [3], in [10], in [4] and in [5] was above 100 µM throughout. Moreover, the TGI in assay [6], in assay [7], in [8] and in assay [9] was above 100 µM in each case.

Turning to `Cc1ccc(/C(O)=C/c2nc3cccnc3[nH]c2=O)cc1`, the TGI in [1], in assay [2], in assay [3], in assay [10], in [4] and in [5] was above 100 µM each time. In addition, the TGI in assay [6] was 80.1 µM; in assay [7] it was above 100 µM; in assay [8], above 100 µM; in assay [9] it was above 100 µM.

For `COc1cc(NS(C)(=O)=O)ccc1NCc1cnc2ccc3[nH]cccc3c12`, the TGI in [1] was 35.4 µM; in assay [2], above 70 µM; in assay [3], 31.4 µM; in assay [10] it was 43.4 µM; in assay [4], 51 µM; in [5], 42.3 µM. For the same compound, the TGI in assay [6] was 21.3 µM; in assay [7], 42.2 µM; in [8], 25.2 µM; in [9], 50.8 µM.

In the case of `CC(=O)NNC(=S)/N=C\c1c(O)c2ccccc2oc1=O`, the TGI in assay [1], in assay [2], in assay [3], in [10], in [4] and in assay [5] was above 100 µM each time. Moreover, the TGI in [6], in assay [7], in [8] and in assay [9] was above 100 µM in each case.

Consider `C/C(=N/NC(=S)N(C)C)c1ccccc1O`, for which the TGI is above 100 µM in [1]; 34.8 µM in assay [2]; 23.4 µM in [3]; above 76.1 µM in [10]; above 100 µM in assay [4]; above 100 µM in [5]. For the same compound, the TGI is above 100 µM in [6], 50.3 µM in assay [7], above 49.8 µM in assay [8] and above 85.8 µM in assay [9].

`CCNC(=O)NNc1ncnc2c1c(-c1ccc(Cl)cc1)cn2-c1ccc(C)cc1`: the TGI in assay [1] came to 31.3 µM; in assay [2], 28.1 µM; in [3] it was 32.3 µM; in assay [10], 35.5 µM; in [4] it was 34.8 µM; in [5], 38.6 µM. The TGI in assay [6] came to 33.1 µM; in assay [7] it was 33.2 µM; in [8], 28 µM; in [9], 49.6 µM.

Regarding `CC(C)(C)c1ccc(O)c(C(c2ccc([N+](=O)[O-])cc2)c2cc(C(C)(C)C)ccc2O)c1`, the TGI stood at 3.44 µM in assay [1]; 5.06 µM in [2]; 3.16 µM in assay [3]; 3.78 µM in assay [4]; 3.33 µM in assay [5]; 3.66 µM in assay [6]. Also, the TGI in [7] was 3.46 µM; in [9], 8.72 µM.

For the compound `Oc1cc(Cl)cc2cc(Cl)cnc12`, the TGI is 65.9 µM in [1]; above 100 µM in [2]; above 100 µM in assay [3]; 34.9 µM in assay [10]; 77.2 µM in [4]; above 100 µM in assay [5]. Further, the TGI in [6] is 48.2 µM; in assay [7], above 100 µM; in assay [8], 53.3 µM; in [9] it was 9.95 µM.

Take `N/C(=N\S(=O)(=O)c1ccc(-c2ccccn2)s1)Nc1ccc(Cl)cc1`: the TGI turned out to be 31 µM in assay [2]; 33.6 µM in assay [3]; 33.4 µM in assay [10]; 27.9 µM in [4]; 27.3 µM in assay [5]; 35.3 µM in assay [6]. In addition, the TGI in assay [7] was determined as 29.7 µM; in [8] it was 30.6 µM; in assay [9], 45.6 µM.

Regarding `COC(=O)[C@H]1[C@@H](O)[C@@]2(O)c3c(OC)cc(OC)cc3O[C@@]2(c2ccc3c(c2)OCO3)[C@@H]1c1ccccc1`, the TGI was 5.18 µM in assay [1]; 0.4 µM in assay [2]; 0.0414 µM in [3]; 9.69 µM in assay [10]; 0.211 µM in assay [4]; above 18 µM in assay [5]. Further, the TGI in assay [7] is 0.0279 µM; in [8] it was 0.0688 µM; in [9], above 10.8 µM.

Regarding `C=CCOC(=O)c1c(C)n([O-])c2cc(Cl)c(Cl)cc2[n+]1=O`, the TGI in [1] is 26.5 µM; in [2] it was 39 µM; in assay [3], 38.8 µM; in assay [10], 70.9 µM; in [4], 55 µM; in assay [5], above 100 µM. Also, the TGI turned out to be 45.7 µM in assay [7], 36.8 µM in assay [8] and 49.3 µM in assay [9].

For the compound `C=C1C(=O)[C@]23C[C@H]1C[C@@H](O)[C@H]2[C@]1(COC3=O)[C@@H](OC(C)=O)CC[C@@](C)(COC(C)=O)[C@H]1C=O`, the TGI is above 50 µM in assay [1]; above 50 µM in assay [2]; 27 µM in assay [10]; above 50 µM in assay [4]; above 50 µM in assay [5]; above 50 µM in [6]. Moreover, the TGI is above 50 µM in assay [8] and 25.4 µM in [9].

For the compound `NC(=S)Nc1ccc2c(c1)oc1ccccc12`, the TGI in assay [1], in assay [2], in assay [3], in assay [10], in [4] and in [5] was above 100 µM each time. The TGI in [6], in assay [8] and in [9] was above 100 µM each time.

Turning to `COc1ccc(C(=O)c2c(-c3ccccc3NC(=O)C(F)(F)F)[nH]c3ccccc23)cc1`, the TGI amounted to 9.11 µM in [1]; 25.5 µM in assay [2]; 32.6 µM in assay [3]; 30.5 µM in assay [10]; 21.4 µM in assay [4]; 17.3 µM in assay [5]. The TGI in assay [7] came to 4.41 µM; in [8], 22 µM; in assay [9] it was 9.05 µM.

Consider `Clc1ccc2nc3n[nH]c(Cl)c3nc2c1`, for which the TGI in [1], in assay [2], in assay [3], in [4], in assay [5] and in assay [6] was above 100 µM in each case. Besides, the TGI in [7] is above 100 µM; in [8], 97.8 µM; in [9], above 100 µM.

`Cc1nc2ccccc2c(=O)n1NC(=O)c1ccccc1[N+](=O)[O-]`: the TGI in assay [1], in assay [2], in assay [3], in assay [10], in [4] and in assay [5] was above 100 µM each time. Also, the TGI in assay [7], in assay [8] and in assay [9] was above 100 µM each time.

Regarding `O=C(OCC1CCCN2CCCCC12)c1cccnc1` (stereo not drawn), the TGI in assay [1], in assay [2], in [10], in assay [4], in assay [5] and in [6] was above 100 µM each time. Further, the TGI in assay [7], in assay [8] and in [9] was above 100 µM each time.

With `CC(C)NCC(O)c1ccc(O)c2ncccc12` (stereo not drawn), the TGI was above 100 µM in assay [1]; 87.7 µM in assay [2]; above 100 µM in [3]; above 100 µM in assay [4]; above 100 µM in assay [5]; above 100 µM in [6]. For the same compound, the TGI in assay [7], in [8] and in assay [9] was above 100 µM throughout.

Consider `COC(=O)c1ccccc1NC(=S)NN(C)C`, for which the TGI in [1], in [2], in [3], in assay [10], in assay [4] and in assay [5] was above 100 µM each time. In addition, the TGI in assay [6], in [7] and in [9] was above 100 µM throughout.

As to `O=S(c1ccccc1)C1CC2CC3(CCC21O)OCCO3` (stereo not drawn), the TGI in assay [1], in assay [3], in assay [10], in [4], in assay [5] and in assay [6] was above 100 µM throughout. Besides, the TGI in assay [8] and in assay [9] was above 100 µM throughout.

With `CCOC(=O)C1(C#N)C2(C#N)C(N)=NC(ON=C(C)C)(ON=C(C)C)C12C#N` (stereo not drawn), the TGI in assay [1], in assay [2], in [3], in [10], in assay [4] and in assay [5] was above 100 µM each time. The TGI in [6], in assay [8] and in assay [9] was above 100 µM in each case.

Turning to `Cc1nc(N)sc1C(=O)Nc1ncn[nH]1`, the TGI in assay [1], in [2], in assay [3], in assay [4], in assay [5] and in assay [6] was above 100 µM throughout. Further, the TGI in [7], in assay [8] and in [9] was above 100 µM in each case.

Consider `Nc1nc2c(c(-c3ccccc3Cl)n1)COC/C2=C\c1ccccc1Cl`, for which the TGI in assay [1] came out at 34.6 µM; in [2], 30.7 µM; in [3], 29.6 µM; in assay [4], 34.8 µM; in assay [5] it was 27.4 µM; in [6], 29.9 µM. The TGI in assay [7] is 34.4 µM; in assay [8], 31.7 µM; in [9], 44.8 µM.

The record behind these values is PubChem BioAssay (NCI).
